Experimental data from article PMC11541488, “Targeting the Plasmodium falciparum IspE Enzyme” (ACS Omega, 2024).
Where two headings read alike, the source gives them in different places. Each block holds one molecule with its values, some of them ahead of it.

Legend:
PfIspE [1] = molecular target: T1, PfIspE (Plasmodium falciparum, UniProt Q8I470); experiment: Biochemical IspE assay (PK/LDH-coupled, NADH oxidation at 340 nm)
Description: (§1) Here, we initiated a high-throughput screening (HTS) campaign on the PfIspE protein (Section S1 in the Supporting Information). The HTS was based on a proprietary library of 100 000 compounds from the BASF company and used the inhibitory potency of the compound against the IspE protein as the readout. The IC50 from the IspE assay was also a key parameter for our chemical optimization study. Therefore, it is important to note that the activity of the target enzyme in the IspE assay is coupled to the oxidation of NADH (which is followed spectrophotometrically at 340 nm) via a cascade of the auxiliary enzymes pyruvate kinase and lactate dehydrogenase (PK/LDH, Section S2 in the Supporting Information). Accordingly, to confirm that the effects observed in the IspE assay are due to inhibition of the target enzyme rather than the auxiliary enzymes, it is crucial to maintain a difference between the PK/LDH and IspE enzymatic activities. Furthermore, as we have previously reported, the biological testing of this chemical class requires careful handling such as storage of the compounds at −20 °C.[19] Based on what has been reported in the literature, a risk-mitigation strategy involves adding a substituent to the C-5 position of the thiazole ring,[20] which we have adhered to in this SAR exploration. […]
(§2) kBar. The lysate was then centrifuged at 15000 rpm for 80 minutes at 4 °C to remove cell debris, and the supernatant was collected.
(§3) 1.2. Protein Purification
(§4) The supernatant containing the target protein was applied to a Ni-chelating Sepharose column (1 cm x 20 cm) that had been equilibrated with the lysis buffer containing 15 mM imidazole. The column was washed with the same buffer supplemented with 15 mM imidazole until the OD280 reached the baseline. The bound proteins were then eluted from the column using a gradient of imidazole ranging from 15 mM to 600 mM, collected in a volume of 100 mL.
(§5) If further purification was required, size exclusion chromatography was performed using a Superdex200 (GE, 2 cm x 60 cm) column. The column was equilibrated with the lysis buffer without imidazole. The eluted IspE fractions from the previous chromatography step were directly applied to the top of the Superdex200 column.
(§6) The purity and integrity of the purified PfIspE protein were assessed using SDS-PAGE.
(§7) The molecular weight of the protein was estimated by comparison with standard protein markers. The concentration of the purified protein was determined using a NanoDrop.
(§8) The purified PfIspE protein was aliquoted and stored at - 80 °C until further use.
(§9) (Note: All procedures were performed at 4 °C unless otherwise specified ).
(§10) 2.0 Biochemical IspE assay
(§11) Escherichia coli IspE[1] and Plasmodium falciparum IspE[2] for IspE assays was expressed, isolated and purified as previously described. All other enzymes and chemicals used in the assays were purchased from Sigma-Aldrich (Taufkirchen, […]
For testing of compounds in the IspE assay, CDP-ME (0.2 mM) in 100 mM Tris-HCl, pH 7.6, 0.02% NaN3 (30 µL) was added to a well of the 384-well microplate, preloaded either with DMSO or with test compound dissolved in DMSO (3 µL). The reaction was started by addition of 100 mM Tris-HCl, pH 7.6, 10 mM MgCl2, 60 mM KCl, 10 mM dithiothreitol, 0.02% NaN3, 1 mM NADH, 2 mM phosphoenolpyruvate, 2 mM ATP, […]
pyruvate kinase (1 U mL–1), lactate dehydrogenase (1 U mL–1) and E. coli IspE (0.05 U mL–1) (27 µL per microplate well).
IC50 values were measured at CDP-ME concentration 100 µM. […]
(§12) For both kinds of assays the OD values in the microplate wells were monitored photometrically at 340 nm (room temperature) for 30 to 90 min in a plate reader (SpectraMax5, […], USA). Initial rate values were evaluated with a nonlinear regression method using the program Dynafit.[3]
Figure S1 : IC50 curve of compound 19.
(1 picture or pasted object on this page, not shown here)

[2] = molecular target: PK-LDH (pyruvate kinase/lactate dehydrogenase); experiment: Pyruvate kinase assay (auxiliary enzymes PK/LDH); assay type: biochemical; details: determined for PfIspE IC50 < 100 μM
Description: as §1, with “°C.[19]” for “°C.[19] Based on what has been reported in the literature, a risk-mitigation strategy involves adding a substituent to the C-5 position of the thiazole ring,[20] which we have adhered to in this SAR exploration.”
as §12, with “Dynafit.[3] […]” for “Dynafit.[3]”

EcIspE [3] = molecular target: T2, EcIspE (Escherichia coli, UniProt P62615); experiment: Biochemical IspE assay (PK/LDH-coupled); details: Table S1; read-out: Inhibitory potency on EcIspE
T2 construct: made in house
T2 sequence (P62615 whole entry): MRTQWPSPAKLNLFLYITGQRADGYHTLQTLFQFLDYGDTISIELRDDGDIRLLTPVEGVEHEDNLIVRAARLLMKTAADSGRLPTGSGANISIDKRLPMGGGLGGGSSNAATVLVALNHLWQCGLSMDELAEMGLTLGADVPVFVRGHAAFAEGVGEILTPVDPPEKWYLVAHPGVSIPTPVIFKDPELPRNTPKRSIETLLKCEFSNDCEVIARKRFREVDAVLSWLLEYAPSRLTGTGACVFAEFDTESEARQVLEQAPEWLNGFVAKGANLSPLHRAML
Protocol: as §2, §3, §4, §5, §6, §7, §8, §9, §10, §11
as §12, with “Dynafit.[3] […]” for “Dynafit.[3]”

Ec IspE = details: cited from earlier work
PfIspE [4] = molecular target: T1, PfIspE; experiment: Analytical SDS-PAGE, photoprobe labelling and competition of probe 23 with compound 19; assay type: binding; details: for Probe binding to IspE (SDS-PAGE): probe 10 µM, native protein
PfNF54 = experiment: [3H]-hypoxanthine incorporation assay, asexual blood stage parasites; assay type: cell-based; details: Plasmodium falciparum
Protocol: However, direct comparison of the two assays is extremely difficult. Consequently, it is essential to note that the existence of additional target proteins within P. falciparum at this stage is neither confirmed nor ruled out. […]
the compound activity against P. falciparum NF54 asynchronous parasites, the [3H]- hypoxanthine incorporation assay was used as described.[4] Compounds dissolved in DMSO (10 mg/mL) are diluted in hypoxanthine - free culture media and was titrated in duplicates over a 64-fold range in 96 well plates. Parasite culture diluted to 0.3% parasitemia with 1.25% final haematocrit with hypoxantine-free medium was added at 100 µL to each well. Following a 48 h incubation, […] [3H]-hypoxanthine was added per well. Plates are incubated for another 24 h. Radioactivity was then measured using MicroBeta2 liquid scintillation counter (Perkin Elmer, Waltham, US) following parasite harvesting onto Microbeta FilterMate cell harvester (Perkin, Elmer, Waltham, US). The fifty percent inhibitory concentration (IC50) was then calculated by linear interpolation as described.[5]
For the background lysate, HEK293 cells (passage 27) were grown to 90% confluency in Dulbecco´s Modified Eagle´s Medium (DMEM high glucose, Sigma) supplemented with 2 mM L-glutamine and 10% (v/v) heat-inactivated fetal calf serum (FCS) in T-175 cell culture flasks. Lysis was performed using HEPES buffer (pH 7.5 , Roth) containing 1% Nonidet P 40 alternative (NP-40), 0.4% sodium dodecyl sulfate (SDS, Roth) and 1% sodium deoxycholate (Roth). The lysate was gently sonicated three times for 10 s on a Bandelin Sonoplus HD2070 at 10% amplitude. The lysate was cleared by centrifugation at 16.000 x g for 10 min. The protein content of the supernatant was determined using a BCA assay (ROTIQuant, Roth) according to the suppliers specifications and adjusted to 5 µg/µL to yield the stock solutions used in the […]
7.2 Reaction with probe 23
The protein samples were prepared to result in 50 µg lysate protein per lane and/or 10 µg of the respective recombinant protein (see section 1 of this SI). […]

EcIspE [5] = molecular target: T2, EcIspE; experiment: Analytical SDS-PAGE, photoprobe labelling and competition of probe 23 with compound 19; assay type: binding; details: for Probe binding to IspE (SDS-PAGE): probe 10 µM, native protein
[6] = CDP-ME concentration 100 µM, read-out: IC50 PfIspE
[7] = parasite growth, 72 h total incubation, read-out: IC50 PfNF54
[8] = competitor 19 in 15 times excess
[9] = compound 19 in 15 times excess to probe 23 (10 µM)

T1 sequence (Q8I470 entry or part of it): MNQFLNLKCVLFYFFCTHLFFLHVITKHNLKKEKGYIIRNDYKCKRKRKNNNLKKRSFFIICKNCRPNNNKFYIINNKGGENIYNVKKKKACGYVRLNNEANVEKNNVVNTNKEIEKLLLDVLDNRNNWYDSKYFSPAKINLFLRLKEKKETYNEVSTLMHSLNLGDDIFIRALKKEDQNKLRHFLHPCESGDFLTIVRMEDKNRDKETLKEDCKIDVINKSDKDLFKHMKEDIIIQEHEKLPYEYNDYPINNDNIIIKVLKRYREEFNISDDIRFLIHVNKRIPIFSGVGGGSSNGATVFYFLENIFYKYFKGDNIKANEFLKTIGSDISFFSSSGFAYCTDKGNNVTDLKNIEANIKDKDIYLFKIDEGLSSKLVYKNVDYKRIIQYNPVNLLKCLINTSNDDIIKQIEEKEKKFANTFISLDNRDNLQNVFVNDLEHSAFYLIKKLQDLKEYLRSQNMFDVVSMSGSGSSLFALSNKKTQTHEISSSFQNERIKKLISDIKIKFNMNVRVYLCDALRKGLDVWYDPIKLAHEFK

SMILES: CCn1c(C)cc(-c2csc(Nc3ccc(CN)cc3)n2)c1C [Compound 18]
IC50 (PfIspE [1]): 86 ± 44 µM
IC50 [2]: > 500 µM

SMILES: C#CCn1c(C)cc(-c2csc(Nc3ccc(CC(F)(F)F)cc3)n2)c1C [Compound 22]
IC50 (EcIspE [3]): 31 ± 13 µM
IC50 (PfIspE [1]; [6]): 192 ± 21 µM

SMILES: Nc1nc(=O)n(C2CCCS2)cc1C#CCNS(=O)(=O)C1CC1 (stereo not shown) [Compound 1]
IC50 (Ec IspE): 8 ± 0.1 µM

SMILES: C#CCn1c(C)cc(-c2csc(Nc3cccc(CC(F)(F)F)c3)n2)c1C [Compound 21]
IC50 (EcIspE [3]): > 500 µM
IC50 (PfIspE [1]; [6]): 286 ± 55 µM

IC50 (PfIspE [1]; [6]): > 500 µM
SMILES: CCn1c(C)cc(-c2csc(Nc3ccc(N(C)C)cc3)n2)c1C [Compound 13]

IC50 (PfIspE [1]; [6]): > 500 µM
SMILES: CCn1c(C)cc(-c2csc(Nc3ccc(OC)cc3)n2)c1C [Compound 14]

SMILES: C#CCn1c(C)cc(-c2csc(Nc3ccc(C4(C(F)(F)F)N=N4)cc3)n2)c1C [Compound 23]
IC50 (EcIspE [3]): 77 ± 16 µM
IC50 (PfIspE [1]; [6]): 145 ± 42 µM
Probe binding to IspE (SDS-PAGE) (PfIspE [4]): high affinity
IC50 (PfNF54; [7]): 9.8 ± 2.9 µg/mL
Probe binding to IspE (SDS-PAGE) (EcIspE [5]): high affinity

SMILES: NCCC(=O)Nc1ccc(I)cc1Oc1cc(Cl)cc(Cl)c1 [Compound 2]
IC50 (Ec IspE): 63 ± 15 µM

IC50 (PfIspE [1]; [6]): 121 ± 17 µM
SMILES: CCn1c(C)cc(-c2csc(Nc3ccc4[nH]ncc4c3)n2)c1C [Compound 20]

SMILES: CCn1c(C)cc(-c2csc(Nc3ccc4[nH]cnc4c3)n2)c1C [Compound 19]
Boost in IspE inhibitory potency compared to initial hit 9 (PfIspE [1]): 8 fold
IC50 (PfIspE [1]; [6]): 53 ± 19 µM
IC50 [2]: > 500 µM
Reduction in fluorescence of probe 23 label (PfIspE [4]; [8]): 48%
Relative fluorescence of probe 23 label remaining (PfIspE [4]; [9]): ~52%
IC50 (PfNF54; corresponding to 0.82 μg/mL, read-out: IC50 PfNF54 converted to molar): ~2.4 µM
IC50 (PfNF54; [7]): 0.82 ± 0.01 µg/mL
Reduction in fluorescence of probe 23 label (EcIspE [5]; [8]): 63%
Relative fluorescence of probe 23 label remaining (EcIspE [5]; [9]): about 37%

SMILES: C#CCCC1(CC(=O)Nc2ccccc2)N=N1 [Compound 24, reference compound]
Probe binding to IspE (SDS-PAGE) (PfIspE [4]): does not show the same binding profile
Probe binding to IspE (SDS-PAGE) (EcIspE [5]): does not show the same binding profile

IC50 (PfIspE [1]; [6]): > 500 µM
SMILES: CCn1c(C)cc(-c2csc(Nc3ccccc3C(F)(F)F)n2)c1C [Compound 10]

IC50 (PfIspE [1]; [6]): 111 ± 34 µM
SMILES: CCn1c(C)cc(-c2csc(Nc3ccc(Cl)cc3)n2)c1C [Compound 15]

IC50 (PfIspE [1]; [6]): 405 ± 114 µM
SMILES: CCn1c(C)cc(-c2csc(Nc3cccc(C(F)(F)F)c3)n2)c1C [Compound 9]

IC50 (PfIspE [1]; [6]): 143 ± 24 µM
SMILES: CCn1c(C)cc(-c2csc(Nc3cc(Cl)cc(Cl)c3)n2)c1C [Compound 17]

IC50 (PfIspE [1]; [6]): > 500 µM
SMILES: CCn1c(C)cc(-c2csc(Nc3ccccc3)n2)c1C [Compound 12]

SMILES: CCOC(=O)CC1(n2cc(C#CCNS(=O)(=O)C3CC3)c(N)nc2=O)COC1 [Compound 1a]
IC50 (Ec IspE): 590 ± 10 µM

SMILES: C1=C(c2c[nH]c3ncccc23)CCNC1 [Compound 8]
IC50 (Ec IspE): 1500 ± 300 µM

IC50 (PfIspE [1]; [6]): 216 ± 53 µM
SMILES: CCn1c(C)cc(-c2csc(Nc3ccc(Cl)nc3)n2)c1C [Compound 16]

IC50 (PfIspE [1]; [6]): 128 ± 23 µM
SMILES: CCn1c(C)cc(-c2csc(Nc3ccc(C(F)(F)F)cc3)n2)c1C [Compound 11]

SMILES: Oc1csc(Nc2nccs2)n1 [Compound 7]
IC50 (Ec IspE): 160 ± 0.9 µM
